According to patent US20210205292A1, “INHIBITORS OF CREB-CBP INTERACTION FOR TREATMENT OF LEUKEMIA” (The Board of Trustees of the Leland Stanford Junior …, priority 2016, published 2021):
Entries after “also recorded” stand apart in the source; their conditions may differ.

Assays:
KG-1 cells = assay: Chemotherapy combination, isobolograms in KG-1 cells; type: cell-based; settings: 48 hours
Method: AML cell lines were purchased from ATCC and maintained with IMDM (Gibco) supplemented with 10% FBS (Fisher Scientific) and 1% PSG (Gibco). Cells were plated at a density of 2-4×10^5 cells/ml, and treated with various doses of Compound A in 0.1% DMSO or 0.1% DMSO alone. Cell counts and viability were determined using the Vi-CELL XR Cell Viability Analyzer (Beckman Coulter). HL-60 and KG-1 cells overexpressing CREB or CBP were generated using lentiviral gene delivery with subsequent puromycin selection and FACs sorting for GFP. CREB knockdown was achieved by infecting cells with a lentivirus expressing the shRNA sequence 5′-[…]-3′ (SEQ ID NO:). For chemotherapy combination experiments, combination index values were calculated using median effects analysis on Calcusyn software. Human patient bone marrow samples were cultured in DMEM plus 20% FBS and 1×PSG, supplemented with recombinant GM-CSF (20 ng/ml), G-CSF (20 ng/ml), SCF (50 ng/ml), IL-3 (20 ng/ml), and IL-6 (10 ng/ml). Cells were plated at a concentration of 1×10^5 cells/ml in a 12-well plate. Vehicle (0.1% DMSO) or Compound A (2 μM) was added for up to 72 hours. All samples contained >85% AML blasts and were not sorted prior to performing experiments. Immunostaining and flow cytometry analyses were performed according to standard procedures. All antibodies were purchased from BD Biosciences. Single cell suspensions of bone marrow culture were subsequently analyzed on a D×P10 flow cytometer (Cytek). Bone marrow from AML patients were collected through voluntary patient participation at University of California, Los Angeles (Los Angeles, Calif., USA) and Stanford University (Palo Alto, Calif., USA) in compliance with the Institutional Review Board regulations of each institution.
To test the effects of CREB inhibition on AML cells, four AML cell lines were treated with doses of Compound A ranging from 100 pM to 10 μM for 48 hours. […] KG-1 cells were less sensitive to Compound A and expressed lower levels of CREB compared to HL-60 cells (FIG. 2, panel A). […]

[1] = tested on: human AML patient sample cells (#186); assay: Primary AML patient sample (#186) xenograft in NSG mice; type: in vivo; settings: 2.3 mg/kg IV once daily
Method: For AML xenograft mouse experiments, HL-60 cells (2×10^6) expressing firefly luciferase and GFP, or cryopreserved human AML patient cells (5×10^6), were injected through the tail vein into NOD.Cg-prkdc^scid Il2rg^tm1WjlSzJ (NSG) mice. Mice were then Compound A or 10% DMSO, injected intravenously by tail vein daily, until death or an endpoint was reached (moribundity) in accordance with the animal care institutional guidelines. All mouse experiments were subject to institutional approval by Stanford University Institutional Animal Care and Use Committee. Leukemia progression in mice at the indicated time points was monitored using an in vivo IVIS 100 bioluminescenceoptical imaging system (Xenogen Corporation). D-Luciferin (Promega) dissolved in sterile phosphate-buffered saline was injected intraperitoneally at a dose of […], 15 minutes before measuring the luminescent signal. General anesthesia was induced with […] and continued during the procedure using a nose cone. […]
To examine the efficacy of CREB inhibition in an in vivo model of AML, 4-6 week old NOD.Cg-Prkdc^scid Il2rg^tm1WjlSzJ (NSG) mice were tail-vein injected with HL-60 AML cells (2×10^6) expressing Firefly luciferase and GFP. […] The efficacy of Compound A was also assessed in a mouse xenograft model using primary AML cell sample (patient sample #186), using similar methods.

[2] = In vivo toxicity in NSG mice not injected with AML cells; design: species or system mouse
Method: To assess the potential in vivo toxicities of Compound A, four groups of five mice not injected with AML cells were treated with 2.3 mg/kg Compound A intravenously daily, or 20, 40 or 60 mg/kg intraperitoneally (IP) daily for 28 days.

[3] = 2.3 mg/kg IV or 20, 40 or 60 mg/kg IP daily, 28 days

N#Cc1ccc(NC(=O)c2cc3ccccc3cc2O)cc1 [Compound A, N-(4-cyanophenyl)-3-hydroxy-2-naphthamide]
interaction with daunorubicin and cytarabine (isobolograms) (KG-1 cells): synergistic | Combination Index (CI) (KG-1 cells; Compound A with cytarabine): less than 1 | Combination Index (CI) (KG-1 cells; Compound A with daunorubicin): less than 1 | toxicity ([1]; 80 days): None of the mice treated for 80 days experienced any toxicity | survival (Kaplan-Meier) ([1]; versus DMSO-treated mice): significant survival advantage | complete blood counts, liver function tests and kidney function tests [2, 3]: no difference; also recorded: normal complete blood counts, liver function tests and kidney function tests | tissue histology [2, 3]: no evidence of fibrosis or damage; also recorded: no microscopic evidence of vital organ damage | animal body weight ([2]; over 28 days): no decrease in animal body weight
